The text below walks through data of patent US20230058623A1, “NOVEL HETEROARYL-TRIAZOLE COMPOUNDS AS PESTICIDES” (Bayer Aktiengesellschaft, priority 2019, published 2023).

Type in all cases: in vivo
In test [1] the test system is adult engorged female ticks (Rhipicephalus microplus). The test can be described thus: Rhipicephalus (Boophilus) microplus injection test. To be noted: 168 h, application rate 4 μg/tick, egg deposition after 7 days, read-out: activity (efficacy: infertile eggs). The method in brief:
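Abdominal injection, 1 μL compound/DMSO, n=5 engorged adult females; climate-chamber incubation. Readout d7: fertile egg laying; doubtful eggs held to hatch (~42 d). % efficacy = infertile eggs (100% all infertile).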

The subject of test [2] is adult unfed cat fleas (Ctenocephalides felis). The test can be described thus: Ctenocephalides felis oral test. The note with it: 48 h, read-out: activity (mortality). The method, boiled down:
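About 20 adult unfed cat fleas fed through parafilm on citrated cattle blood containing compound (from a DMSO concentrate). Blood held at 37° C, fleas at room temperature. Mortality in % scored after 2 days.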

Test [3] deals with Rhipicephalus (Boophilus) microplus larvae (strain Parkhurst, resistant against synthetic pyrethroids). As to the kind of experiment: Rhipicephalus (Boophilus) microplus in-vitro contact test, larval cattle tick. The note with it: after 48 hours, read-out: activity (efficacy: larvae dead or moribund); for pest or weed control at 1 µg/cm2, 100 g/ha: application rate 1 μg/cm^2 (=100 g/ha); for pest or weed control at 5 µg/cm2, 500 g/ha: application rate 5 μg/cm^2 (=500 g/ha). The method, boiled down: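 Pyrethroid-resistant Parkhurst larvae, 20–50 per tube, were kept 48 h at 27 °C and 85% relative humidity in glass tubes whose inner walls carried a dried acetone film of compound (900 ppm giving 5 μg/cm^2). Dead or moribund larvae, judged by loss of negative geotactic behavior, set percent efficacy.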

In test [4] the test system is adult brown dog ticks (Rhipicephalus sanguineus). As to the kind of experiment: Rhipicephalus sanguineus in-vitro contact test, adult brown dog ticks. To be noted: application rate 5 μg/cm^2 (=500 g/ha), after 48 hours, read-out: activity (efficacy: ticks dead or moribund). The method, boiled down: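 Read-out: % efficacy as dead or moribund ticks, judged 48 h after exposure by failure to climb away from a 45-50° C heating plate within 5 min. Tubes were coated with acetone solution (900 ppm = 5 μg/cm^2 surface dose) and held 5-10 adults each at room temperature.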

Test [5] relates to southern root-knot nematode (Meloidogyne incognita). As to the kind of experiment: Meloidogyne incognita test. The note with it: application rate 20 ppm; after 14 days. The procedure: Meloidogyne incognita—Test
Solvent: 125.0 parts by weight of acetone
To produce a suitable preparation of active compound, 1 part by weight of active compound is mixed with the stated amount of solvent, and the concentrate is diluted with water to the desired concentration.
Vessels are filled with sand, a solution of the active ingredient, a suspension containing eggs and larvae of the southern root-knot nematode (Meloidogyne incognita) and salad seeds. The salad seeds germinate and the seedlings grow. Galls develop in the roots.
After 14 days the nematicidal activity is determined based on the percentage of gall formation. 100% means no galls were found and 0% means the number of galls found on the roots of the treated plants was equal to that in untreated control plants.

For test [6], the system named is brown planthopper (Nilaparvata lugens). As to the kind of experiment: Nilaparvata lugens spray test. The note with it: 96 h, application rate 500 g/ha, after 4 days, rice plants. The method, boiled down: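 Rice plants sprayed with compound diluted in water containing 1000 ppm emulsifier, then infested with brown planthopper. Mortality (%) scored after 4 days, 100% meaning all insects killed.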

Test [7] relates to larvae of the southern green stink bug (Nezara viridula). As to the kind of experiment: Nezara viridula spray test. The note with it: 96 h, after 4 days, barley plants; for mortality at 500 g/ha: application rate 500 g/ha, read-out: activity (mortality). The method, boiled down: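 Barley plants sprayed with the active compound in emulsifier-containing water, then infested with stink bug larvae. Mortality scored in % after 4 days, with 100% meaning all insects killed.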

Test [8] has as its system green peach aphid (Myzus persicae). As to the kind of experiment: Myzus persicae oral test. The note with it: 120 h, read-out: activity (mortality). The method, boiled down:
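Readout: % mortality at day 5, where 100% = all aphids dead and 0% = none dead. Feeding via parafilm membrane over compound in IPL41 medium (33%+15% sugar); mixed-age population. Stock in acetone (1:100 w/w), water-diluted.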

Test [9] relates to adult cat fleas (Ctenocephalides felis). The test can be described thus: Ctenocephalides felis in-vitro contact test, adult cat flea. To be noted: application rate 5 μg/cm^2 (=500 g/ha), after 48 hours, read-out: activity (efficacy: fleas dead or moribund). The method, boiled down:
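After 48 h of room-temperature exposure in tubes whose walls carried dried compound residue (5 μg/cm^2, from 900 ppm acetone solution), adult cat fleas (5-10 per tube) were heat-challenged at 45-50° C up to 5 min. Fleas unable to climb away were counted dead or moribund, expressed as % efficacy.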

Test [10] deals with fall armyworm larvae (Spodoptera frugiperda). The test can be described thus: Spodoptera frugiperda spray test. To be noted: 168 h, application rate 100 g/ha, after 7 days, maize leaf sections. The method, boiled down: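 Read-out: % larval mortality at day 7, where 100% means all killed and 0% none killed. Compound diluted in water with 1000 ppm emulsifier, sprayed onto Zea mays leaf sections; dried sections then infested with S. frugiperda larvae.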

For test [11], the system named is adult mosquitoes Aedes aegypti strain MONHEIM. As to the kind of experiment: Aedes aegypti test (AEDSAE surface treatment & contact assay). To be noted: surface concentration 20 mg/m^2, exposure 30 minutes, 24 hours after contact, read-out: efficacy (mortality). The method in brief: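 Compound in acetone (2 mg/ml) with 2000 ppm RME dried onto glazed tile; adults exposed to the treated surface for 30 min. Percent mortality scored 24 h after contact.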

Test [12] relates to adult flies Musca domestica strain WHO-N. The test can be described thus: Musca domestica test (MUSCDO surface treatment & contact assay). The note with it: surface concentration 20 mg/m^2, exposure 30 minutes, 24 hours after contact, read-out: efficacy (mortality). The method, boiled down:
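Compound dissolved at 2 mg/ml in acetone with 2000 ppm RME, applied to glazed tile and dried; adult flies exposed on the surface for 30 min. Percent mortality scored 24 h after contact.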

In test [13] the test system is larvae of the banded cucumber beetle (Diabrotica balteata). The test can be described thus: Diabrotica balteata spray test. The note with it: 168 h, application rate 100 g/ha (=32 μg/well), after 7 days, wheat seeds, read-out: activity (efficacy: seedlings grown). The method in brief: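 Efficacy (%) read 7 days after infesting treated seedlings with 10-20 banded cucumber beetle larvae, 100% meaning growth as in uninfected untreated control and 0% no growth. Test solutions in water containing 1000 ppm emulsifier were sprayed onto wheat seeds germinated for 1 day on agar.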

Test [14] concerns green peach aphid (Myzus persicae). As to the kind of experiment: Myzus persicae spray test. The note with it: foliar, 120 h, application rate 100 g/ha, after 5 days, Chinese cabbage leaf disks, read-out: activity (mortality). The method, boiled down:
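Percent kill was recorded 5 days after spraying. Test solutions, prepared with solvent and diluted in 1000 ppm emulsifier water, were applied to Brassica pekinensis leaf disks carrying mixed-instar green peach aphids.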

The mortality is the percentage killed. For `Cc1nc([C@H](C)NC(=O)c2cc(Cl)cc(C(F)(F)F)c2)n(-c2cc(C(=O)N3CCCC3)ccn2)n1` [Example I-27], the pest or weed control at 0.004 mg in test [1] worked out at 80%. Besides, in [2], the mortality at 100 ppm is 100%. For the same compound, in test [3], the pest or weed control at 1 µg/cm2, 100 g/ha came out at 100% and the pest or weed control at 5 µg/cm2, 500 g/ha came to 100%. The pest or weed control at 5 µg/cm2, 500 g/ha in test [4] turned out to be 80%. Further, the “activity (nematicidal activity based on gall formation)” value (from here on “activity”) in test [5] is reported as 90%.

As to `Cc1nc([C@H](C)NC(=O)c2cc(Cl)cc(C(F)(F)F)c2)n(-c2cc(C(=O)N3CCC3)ccn2)n1` [Example I-28], the pest or weed control at 0.004 mg in [1] amounted to 80%. For the same compound, the mortality at 100 ppm in test [2] was found to be 100%. In test [3], the pest or weed control at 1 µg/cm2, 100 g/ha was determined as 90% and the pest or weed control at 5 µg/cm2, 500 g/ha was determined as 90%. Besides, in [5], the “activity” value worked out at 90%.

Regarding `CC1CN(C(=O)c2ccc(-n3ncnc3[C@H](C)NC(=O)c3cc(C(F)(F)F)cc(S(C)(=O)=O)c3)nc2)CCO1` (stereo partly drawn) [Example I-81], the mortality at 500 g/ha in [6] and in [7] was 100% in each case. Moreover, the mortality at 100 g/ha in test [7] (application rate 100 g/ha) was 100%. Further, in test [8], the mortality at 4 ppm amounted to 100%. Also, the “activity” value in [5] came to 100%.

With `C[C@H](NC(=O)c1cc(C(F)(F)F)cc(C(F)(F)F)c1)c1nc(C2CC2)nn1-c1ccc(C(=O)N2CCOCC2)cn1` [Example I-88], in [7], the mortality at 500 g/ha amounted to 100%. Also, the pest or weed control at 5 µg/cm2 in test [9] turned out to be 100%. For the same compound, the figures for the mortality at 100 g/ha in test [10] and in test [14] were 100% and 90%, respectively. Further, in [3], the pest or weed control at 1 µg/cm2, 100 g/ha is 100%. In addition, the pest or weed control at 5 µg/cm2, 500 g/ha in test [3] and in [4] was 100% in each case. For the same compound, the mortality at 20 mg/m2 in test [11] and in test [12] was 80 to 100% throughout. In test [13], the pest or weed control at 32 µg/disc, 100 g/ha was 100%. The “activity” value in [5] was 100%.
